Data from patent US20230233533A1, “COMPOSITIONS, METHODS OF TREATING AND PREVENTING FUNGAL INFECTIONS, AND METHODS OF INHIBITING PRP8 INTEIN EXPRESSION” (Health Research, Inc., priority 2020, published 2023).
Converted amounts (≈) assume the structure as drawn. “And” between values parts separate entries of the source, which are not always exact repeats. Equal values may be shown once.

Assays:
[1] = target: T1, papain (Carica papaya, UniProt P00784); experiment: Papain protease inhibition (Abz FRET substrate); format: biochemical; details: compound at 400 μM
T1 construct: purchased Sigma-Aldrich
T1 sequence (P00784 134-345): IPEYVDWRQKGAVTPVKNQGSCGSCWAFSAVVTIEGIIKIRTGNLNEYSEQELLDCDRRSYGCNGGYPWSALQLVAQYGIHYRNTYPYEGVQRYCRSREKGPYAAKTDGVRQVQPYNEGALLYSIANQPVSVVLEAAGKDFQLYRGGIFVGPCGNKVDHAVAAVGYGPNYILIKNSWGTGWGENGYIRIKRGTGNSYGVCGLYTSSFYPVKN
Description: Trypsin and papain protease inhibition—An Abz FRET substrate (Abz-RRRRSAG-nTyr) developed previously (Li et al., “Existing Drugs as Broad-Spectrum and Potent Inhibitors for Zika Virus by Targeting NS2B-NS3 Interaction,” Cell Research 27(8):1046-1064 (2017), which is hereby incorporated by reference in its entirety) was used as the substrate for inhibition of trypsin and papain proteases. In black and clear-bottom 96-well plates, 1 μg trypsin (Sigma-Aldrich) was incubated with DMF or compounds at 400 μM at 25° C. for 30 min in a 70 μl reaction buffer containing 20 mM Tris, pH 8.0, 100 mM NaCl, 5% Glycerol, and 0.05% CHAPS. For papain, 1 μg Papain (Sigma-Aldrich) was incubated with compounds at 400 μM at 25° C. for 30 min in a 70 μl reaction buffer composed of 1.1 mM EDTA, 0.067 mM β-mercaptoethanol, 5.5 mM cysteine. […]

[2] = tested on: Prp8 intein; experiment: Western blot of Prp8 intein splicing in C. neoformans H99; format: cell-based; details: 0.32 μg/ml, 3 h post-treatment
Description: Western blot (WB)—Fresh colonies of Cryptococcus neoformans were grown in yeast extract peptone dextrose (YPD) broth in an environmental shaker (250 rpm) overnight at 30° C. The fungal cells (5 ml) were diluted in 125 ml YPD broth and grown for 1.5 h to a final cell density of 0.2 at OD530. The cells were distributed to test tubes (3 ml/tube). Then 3 ml of YPD medium containing DMF or 2-fold diluted compounds was added to the cells. The mixtures were incubated at 30° C. in a shaker at 250 RPM for up to 18 h. Samples were spun down and pellets were frozen for WB analysis.
Cryptococcal cells treated with DMF or compounds were washed twice with PBS buffer. Cells were spun down and supernatant was removed. For a 6-ml cell pellet, 30 μl of complete protease inhibitor cocktail in PBS was added to the cells, followed by addition of 400 μl lysis buffer (50 mM Tris, pH 8.0, 500 mM NaCl, 10% glycerol) and 500 μl glass beads. The fungal cells were lysed by rigorous beating for 2 min 3 times. The cell lysate was spun down. Supernatant was mixed with SDS-PAGE loading buffer (1:1). The mixtures were boiled at 95° C. for 10 min, followed by centrifugation at 15,000 rpm for 10 min. Samples were analyzed using 12% SDS-PAGE. The separated samples were blotted to a PVDF membrane and subjected to WB analysis using an antibody against the Prp8 intein. […]

[3] = tested on: C. neoformans strain H99; experiment: Minimum fungicidal concentration (MFC) determination; format: cell-based; details: Cryptococcus neoformans
Description: […] cells (100 ul of 0.5×10^5/ml) in log phase were added to each well. […] Then, the cultured cells in selected wells were first suspended by gentle pipetting. 50 μl of the cell culture suspension from each well was plated onto the Sabouraud dextrose agar (SDA) plates and further incubated for 48 h. MFC is defined as the minimum concentration where there is no growth after plating to the SDA plates. […] To determine minimum fungicidal concentration (MFC), the cultured cells in selected wells were first suspended by gentle pipetting. Then 50 ul of the cell culture suspension from each well was plated onto the Sabouraud dextrose agar (SDA) plates and further incubated for 48 h. MFC is defined as the minimum fungicidal concentration where there is no growth after plating on the SDA plates.

[4] = target: Prp8 intein (Cryptococcus gattii, UniProt E6R027); experiment: Split Renilla luciferase RLuc-Prp8 intein splicing assay; format: biochemical; details: compound at 20 μM
[5] = in vitro; format: cell-based, human; details: human, CC50 A549
Outline: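 A549 cells (5×10^3 per well) were exposed to compounds at 37 °C for 48 h, and viability was read by MTT assay; N=3.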

Chain of Prp8 intein (Cryptococcus gattii, UniProt E6R027) (E6R027 entry or part of it): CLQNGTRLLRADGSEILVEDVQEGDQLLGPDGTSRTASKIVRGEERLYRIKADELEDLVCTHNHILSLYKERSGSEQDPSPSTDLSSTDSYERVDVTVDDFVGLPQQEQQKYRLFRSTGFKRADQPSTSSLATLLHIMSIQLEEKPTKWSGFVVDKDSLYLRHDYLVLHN

## O=C(Nc1ccc(F)cc1)c1nnsc1S(=O)(=O)c1ccc(Cl)cc1 [6G-318S, 5-[(4-chlorophenyl)sulfonyl]-N-(4-fluorophenyl)-1,2,3-thiadiazole-4-carboxamide]
[1]
  inhibition of papain protease activity: neither 6G-318S, 6G-319S, nor cisplatin significantly inhibited
[2]
  inhibition of Prp8 splicing in vivo in C. neoformans: completely inhibited Prp8 splicing
[3]
  MFC: 1.25 µg/mL (≈ 3.14 µM)
[4]
  suppression of RLuc-Prp8 intein splicing activity: greater than 50%
[5]
  CC50 at 48 h: 13.9 µg/mL and ~35 µM
